Measurements: patent US9670194B2 (Calitor Sciences, LLC, priority 2013, dated 2017)
Like-named read-outs stand apart in the source and are kept apart here.

Experiments:
[1] = Compound stability in human liver microsomes; type: in vitro ADME; settings: for half-life at 5 μM: human liver microsomes 0.5 mg protein/mL, compound 5 μM, NADPH 1.0 mM, 37° C.; for CLint scaled at 5 μM: human liver microsomes, in vivo CLint extrapolated
[2] = Compound stability in rat liver microsomes; type: in vitro ADME; settings: pH 7.4; for half-life at 5 μM: rat liver microsomes 0.5 mg protein/mL, compound 5 μM, NADPH 1.0 mM, 37° C.; for CLint scaled at 5 μM: rat liver microsomes, in vivo CLint extrapolated
[3] = Pharmacokinetics after intravenous and oral administration in rats; type: in vivo, rat; settings: for CL/F / AUC(0-t) / half-life / Vd / clearance (CL): iv dosing; for bioavailability / AUC(0-t) / half-life / Vd: rat, plasma; for bioavailability: oral dose generally 5 or 10 mg/kg; for Vd: read-out: Vss

SMILES | half-life at 5 μM [1] [min] | CLint scaled at 5 μM [1] [mL/min/kg] | half-life at 5 μM [2] [min] | CLint scaled at 5 μM [2] [mL/min/kg] | CL/F ([3]; dose 1 mg/kg) [mL/min/kg] | bioavailability ([3]; iv dose 1 mg/kg) [%] | AUC(0-t) ([3]; dose 1 mg/kg) [ng·h/mL] | half-life ([3]; dose 1 mg/kg) [min] | Vd ([3]; dose 1 mg/kg) [L/kg] | clearance (CL) ([3]; dose 1 mg/kg) [mL/min/kg] | clearance (CL) ([3]; dose 0.48 mg/kg) [mL/min/kg] | bioavailability ([3]; iv dose 0.48 mg/kg) [%] | AUC(0-t) ([3]; dose 0.48 mg/kg) [ng·h/mL] | half-life ([3]; dose 0.48 mg/kg) [min] | Vd ([3]; dose 0.48 mg/kg) [L/kg] | clearance (CL) ([3]; dose 0.5 mg/kg) [mL/min/kg] | bioavailability ([3]; iv dose 0.5 mg/kg) [%] | AUC(0-t) ([3]; dose 0.5 mg/kg) [ng·h/mL] | half-life ([3]; dose 0.5 mg/kg) [min] | Vd ([3]; dose 0.5 mg/kg) [L/kg]
CC[C@H](Nc1ncnc(N)c1-c1noc(C)n1)c1nc2cccc(C)c2c(=O)n1C1CC1 | 19.6 | 126 | 20 | 124 | 40.3 | 40.5 | 393 | 158 | 6.07 | – | – | – | – | – | – | – | – | – | – | –
CC[C@H](Nc1ncnc(N)c1-c1noc(C)n1)c1nc2ccccc2c(=O)n1-c1ccccc1F | 11 | 227 | 2.69 | 923 | 118 | 8.88 | 143 | 63 | 7.21 | – | – | – | – | – | – | – | – | – | – | –
CC[C@H](Nc1ncnc(N)c1C1=N[C@@H](C)CO1)c1nc2cccc(Cl)c2c(=O)n1C1CC1 [Ex. 5, 2-((S)-1-((6-amino-5-((S)-4-methyl-4,5-dihydrooxazol-2-yl)pyrimidin-4-yl)amino)propyl)-5-chloro-3-cyclopropylquinazolin-4(3H)-one] | 5.52 | 315 | 5.98 | 416 | – | 30.4 | 276 | 91.2 | 11.9 | 59.5 | – | – | – | – | – | – | – | – | – | –
CC[C@H](Nc1ncnc(N)c1-c1ncnn1C)c1nc2cccc(Cl)c2c(=O)n1C1CC1 [Ex. 9, 2-((1S)-1-((6-amino-5-(1-methyl-1H-1,2,4-triazol-5-yl)pyrimidin-4-yl)amino)-propyl)-5-chloro-3-cyclopropylquinazolin-4(3H)-one] | 160 | 10.9 | 56.8 | 43.8 | – | 158 | 608 | 78 | 2.12 | 27.3 | – | – | – | – | – | – | – | – | – | –
CC[C@H](Nc1ncnc(N)c1-c1noc(C)n1)c1nc2cccc(Cl)c2c(=O)n1-c1ccccc1 [Ex. 13, (S)-2-(1-((6-amino-5-(5-methyl-1,2,4-oxadiazol-3-yl)pyrimidin-4-yl)amino)-propyl)-5-chloro-3-phenylquinazolin-4(3H)-one] | 44.7 | 38.9 | 6.55 | 379 | – | 11.4 | 232 | 68.4 | 6.92 | 72.5 | – | – | – | – | – | – | – | – | – | –
CC[C@H](Nc1ncnc(N)c1-c1noc(C)n1)c1nc2cccc(C)c2c(=O)n1-c1ccccc1C [Ex. 15, (S)-2-(1-((6-amino-5-(5-methyl-1,2,4-oxadiazol-3-yl)pyrimidin-4-yl)amino)-propyl)-5-methyl-3-(o-tolyl)quinazolin-4(3H)-one] | 12.6 | 138 | 4.84 | 513 | – | 36.4 | 223 | 69.6 | 7.41 | 74.2 | – | – | – | – | – | – | – | – | – | –
CC[C@H](Nc1ncnc(N)c1-c1noc(C)n1)c1nc2cccc(F)c2c(=O)n1C1CC1 [Ex. 16, (S)-2-(1-((6-amino-5-(5-methyl-1,2,4-oxadiazol-3-yl)pyrimidin-4-yl)amino)-propyl)-3-cyclopropyl-5-fluoroquinazolin-4(3H)-one] | 22.9 | 108 | 19.7 | 126 | – | 18.3 | 249 | 45.6 | 4.3 | 68.7 | – | – | – | – | – | – | – | – | – | –
CC[C@H](Nc1ncnc(N)c1-c1ncn(C)n1)c1nc2cccc(C)c2c(=O)n1C1CC1 [Ex. 18, (S)-2-(1-((6-amino-5-(1-methyl-1H-1,2,4-triazol-3-yl)pyrimidin-4-yl)amino)propyl)-3-cyclopropyl-5-methylquinazolin-4(3H)-one] | 16.5 | 105 | 9.24 | 269 | – | 60.6 | 307 | 53.4 | 2.94 | 54.2 | – | – | – | – | – | – | – | – | – | –
CC[C@H](Nc1ncnc(N)c1-c1nnc(C)o1)c1nc2ccccc2c(=O)n1-c1ccccc1F [Ex. 24, (S)-2-(1-((6-amino-5-(5-methyl-1,3,4-oxadiazol-2-yl)pyrimidin-4-yl)amino)-propyl)-3-(2-fluorophenyl)quinazolin-4(3H)-one] | 17.1 | 146 | 5.42 | 458 | – | – | – | – | – | – | 70.5 | 69.1 | 121 | 30.6 | 2.31 | – | – | – | – | –
CC[C@H](Nc1ncnc(N)c1-c1ncc(C)o1)c1nc2cccc(C)c2c(=O)n1-c1ccccc1C [Ex. 28, (S)-2-(1-((6-amino-5-(5-methyloxazol-2-yl)pyrimidin-4-yl)amino)propyl)-5-methyl-3-(o-tolyl)quinazolin-4(3H)-one] | 8.69 | 286 | 5.12 | 485 | – | 7.67 | 265 | 265 | 8.92 | 61.2 | – | – | – | – | – | – | – | – | – | –
CC[C@H](Nc1ncnc(N)c1-c1nc(C)co1)c1nc2cccc(C)c2c(=O)n1-c1ccccc1C [Ex. 29, (S)-2-(1-((6-amino-5-(4-methyloxazol-2-yl)pyrimidin-4-yl)amino)propyl)-5-methyl-3-(o-tolyl)quinazolin-4(3H)-one] | 1.92 | 1290 | 1.92 | 1300 | – | 4.56 | 247 | 122 | 13.2 | 130 | – | – | – | – | – | – | – | – | – | –
CC[C@H](Nc1ncnc(N)c1-c1ncn(C)n1)c1nc2cccc(C)c2c(=O)n1-c1ccccc1C [Ex. 30, (S)-2-(1-((6-amino-5-(1-methyl-1H-1,2,4-triazol-3-yl)pyrimidin-4-yl)amino)-propyl)-5-methyl-3-(o-tolyl)quinazolin-4(3H)-one] | 17.8 | 140 | 8.46 | 294 | – | 22.4 | 238 | 51.6 | 3.84 | 70.5 | – | – | – | – | – | – | – | – | – | –
CC[C@H](Nc1ncnc(N)c1-c1nnc(C)o1)c1nc2cccc(Cl)c2c(=O)n1-c1ccccc1C [Ex. 35, (S)-2-(1-((6-amino-5-(5-methyl-1,3,4-oxadiazol-2-yl)pyrimidin-4-yl)-amino)propyl)-5-chloro-3-(o-tolyl)quinazolin-4(3H)-one] | 37.9 | 45.9 | 8.87 | 280 | – | – | – | – | – | – | – | – | – | – | – | 53 | 41.8 | 157 | 67.8 | 3.46
CC[C@H](Nc1ncnc(N)c1-c1nnn(C)n1)c1nc2cccc(Cl)c2c(=O)n1-c1cccc(F)c1 [Ex. 36, (S)-2-(1-((6-amino-5-(2-methyl-2H-tetrazol-5-yl)pyrimidin-4-yl)amino)propyl)-5-chloro-3-(3-fluorophenyl)quinazolin-4(3H)-one] | 14.3 | 122 | 14.6 | 170 | – | – | – | – | – | – | – | – | – | – | – | – | – | – | – | –
C[C@H](Nc1ncnc(N)c1-c1nnn(C)n1)c1nc2cccc(Cl)c2c(=O)n1C1CC1 [Ex. 42, (S)-2-(1-((6-amino-5-(2-methyl-2H-tetrazol-5-yl)pyrimidin-4-yl)amino)ethyl)-5-chloro-3-cyclopropylquinazolin-4(3H)-one] | 42.4 | 41 | 25.3 | 98.2 | – | 33 | 203 | 54.6 | 5.15 | 82 | – | – | – | – | – | – | – | – | – | –
CC[C@H](Nc1ncnc(N)c1-c1nnn(C)n1)c1nc2cccc(F)c2c(=O)n1-c1ccccc1 [Ex. 43, (S)-2-(1-((6-amino-5-(2-methyl-2H-tetrazol-5-yl)pyrimidin-4-yl)amino)-propyl)-5-fluoro-3-phenylquinazolin-4(3H)-one] | 7.12 | 244 | 7.15 | 347 | – | 90 | 452 | 91.2 | 3.41 | 36.8 | – | – | – | – | – | – | – | – | – | –
CC[C@H](Nc1ncnc(N)c1-c1ncn(C)n1)c1nc2cccc(Cl)c2c(=O)n1-c1ccccc1F [Ex. 45, (S)-2-(1-((6-amino-5-(1-methyl-1H-1,2,4-triazol-3-yl)pyrimidin-4-yl)amino)-propyl)-5-chloro-3-(2-fluorophenyl)quinazolin-4(3H)-one] | 10.7 | 162 | 9 | 276 | – | 70.2 | 278 | 58.2 | 4.61 | 61.8 | – | – | – | – | – | – | – | – | – | –
CC[C@H](Nc1ncnc(N)c1-c1nnn(C)n1)c1nc2cccc(Cl)c2c(=O)n1C1CC1 [Ex. 54, (S)-2-(1-((6-amino-5-(2-methyl-2H-tetrazol-5-yl)pyrimidin-4-yl)amino)-propyl)-5-chloro-3-cyclopropylquinazolin-4(3H)-one] | 42.8 | 40.6 | 99.1 | 25.1 | – | – | – | – | – | – | – | – | – | – | – | – | – | – | – | –
